Measurements: article PMC7168933, “Design, Synthesis and Biochemical Evaluation of Novel Ethanoanthracenes and Related Compounds to Target Burkitt’s Lymphoma” (Pharmaceuticals, 2020)

Columns and labels:
DG-75 cells = assay: Effect of NAC antioxidant pre-treatment on viability of DG-75 cells (alamarBlue); format: cell-based; settings: Homo sapiens, 1 µM compound, 48 h, no NAC, read-out: viable DG-75 cells without NAC
Protocol: Cell proliferation of DG-75 cells was determined with an alamarBlue assay (seeding density 2 × 10^4 cells/mL per well for 96-well plates), with vehicle control ethanol 1% (v/v). Cells were retained for 24 h and then pre-treated with NAC (5 mM) for 1 h, followed by compounds 15, 16b and 16c at 1 μM for 48 h. Cell viability was measured by alamarBlue assay (mean of three independent experiments).
N-Acetylcysteine (Sigma) was dissolved in sterile water (100 mM). Fresh solutions were prepared for each experiment. A 96 well plate was seeded with 2 × 10^4 cells/well for DG-75 cells. After 23 h, the DG-75 cells were then pre-treated with NAC (5 mM) for 1 h before compound treatment. The wells were then treated with the desired drug concentration (1 µM) for a predetermined time frame (48 h). After treatment and incubation, each well was treated with 20 µL of alamarBlue (37 °C) and the plate was incubated in the dark at 37 °C for 4–6 h. Fluorescence of the 96 well plates was then recorded at 590 nm (excitation 544 nm), as described for ‘alamarBlue viability assay’ (above). The percentage of viable cells remaining with NAC pre-treatment was compared to the percentage of viable cells remaining without NAC pre-treatment in order to determine the implication of ROS in the mechanism of cell death induced.

[1] = test system: MUTU-1 Burkitt lymphoma cell line (EBV+); assay: cells; settings: Mutu-1, 24 h; for IC50: read-out: IC50 MUTU-I 24 h; for viability at 1 µM: read-out: MUTU-1 Cell Viability % 1 μM, 1 μM, 24 h; for viability at 10 µM: read-out: MUTU-1 Cell Viability % 10 μM, 10 μM, 24 h
[2] = test system: MUTU-1 Burkitt's lymphoma cell line; assay: FITC Annexin V/PI FACS analysis of apoptosis in MUTU-I cells; format: cell-based; settings: 24 h
Protocol: (§1) BL cells DG-75 and MUTU-1 (750,000) were treated with the specified concentration of the selected compound and incubated for 24 h (MUTU-1) or 48 h (DG-75) with taxol as the positive control. Samples were harvested by centrifugation and the pellets were rinsed with 0.5 mL of Ca^2+ Annexin V binding buffer (0.1 M HEPES, pH 7.4; 1.4 M NaCl; 25 mM CaCl2) each and pelleted again by centrifugation. Supernatants were decanted and the pellets were suspended again in 50 µL FITC Annexin V (diluted 1:33 in Ca^2+ Annexin V binding buffer), the samples were then placed on ice and incubated for 10 min in the dark. After the incubation period 0.5 mL of Ca^2+ Annexin V binding buffer was added and samples were pelleted by centrifugation. The supernatant was decanted and the pellet was suspended in PI solution (500 µL; 0.5 µg/mL). After 1 h, the samples were recorded using a CyAn ADP flow cytometer (Beckman Coulter Inc., Brea, CA, USA). 10,000 cells were analysed with the Flowjo software package. Taxol was used as a positive control for cell death.

[3] = test system: MUTU-1 Burkitt lymphoma cell line (EBV+); settings: 1 μM, 24 h
[4] = test system: DG-75 Burkitt lymphoma cell line (EBV−, chemoresistant); settings: 1 μM, 48 h
[5] = Viability of peripheral blood mononuclear cells (alamarBlue); format: cell-based; settings: human, peripheral blood mononuclear cells (PBMCs); for viability at 24 h, 0.5 µM: read-out: viable PBMCs at 0.5 µM; for viability at 24 h, 1 µM: read-out: viable PBMCs at 1 µM
Protocol: BL cells were seeded in a 96-well plate (1–5 × 10^4 cells per 200 µL in well). Cells were treated with the desired drug concentration for a predetermined time frame and incubated as required. alamarBlue (20 µL) was added to each well and the cells were incubated at 37 °C in the dark for 4 h. Plates were then recorded on a fluorescence plate reader (SpectraMax Gemini, Molecular Devices) at 544 nm (excitement) and 590 nm (emission). Experiments were performed in triplicate using controls of reagent, medium and vehicle (100% viability). Taxol (10 μM) was used as the control drug (90% cytotoxicity) for both cell lines. The experiments were performed in triplicate and the mean value for three independent experiments was calculated.
Blood was obtained from healthy donors (n = 2) after informed consent was received. The blood was then placed into a 50 mL falcon tube and diluted with phosphate-buffered saline (PBS), 1:2. The blood was separated into red blood cells, white blood cell ring and serum using LymphoPrep. The blood was slowly added to Ficoll pague plus (20 mL). The tubes containing the blood were then centrifuged for 30 min at 1700 g. Following transfer of the white blood cell ring to a new 50 mL tube, the volume was adjusted to 50 mL. The samples were again centrifuged for 10 min at 1700 g. The, supernatant liquid was removed; and this step was repeated. The resultant pellet was then resuspended in 10 mL of complete Iscove’s Modified Dulbecco’s (IMDM) media (10% FBS, 0.1% Ciprofloxacin (10 mg/mL)) for use in the cell viability experiments.

[6] = test system: DG-75 Burkitt lymphoma cell line (EBV−, chemoresistant); assay: cells; settings: Homo sapiens, DG-75, 48 h; for viability at 1 µM: read-out: DG-75 Cell Viability % 1 μM, 1 μM, 48 h; for viability at 10 µM: read-out: DG-75 Cell Viability % 10 μM, 10 μM, 48 h; for IC50: read-out: IC50 DG-75 48 h
[7] = test system: DG-75 Burkitt's lymphoma cell line; assay: FITC Annexin V/PI FACS analysis of apoptosis in DG-75 cells; format: cell-based; settings: 48 h
Protocol: as §1

MUTU-I cell line = assay: Lactate dehydrogenase (LDH) release cytotoxicity assay in MUTU-I cells; format: cell-based; settings: percentage of total LDH release
Protocol: (§2) The CytoTox 96 non-radioactive cytotoxicity assay (Promega Corporation; 2800 Woods Hollow Road, Madison, WI, USA) was used to determine the cyctotoxicity of selected compounds. BL cells were incubated for 24 hr and then treated with the selected compounds (at 10 μM concentration) 15, 16b and 16c as in the cell viability assay. After 24 or 48 h as appropriate, the lysis solution (10X), (20 μL) was added. The cells were incubated for a further 1 h to ensure complete death. The supernatant (50 μL) was removed and transferred to a new 96-well plate. “Substrate mix″ (50 μL) was added and the plate was retained in the dark at RT for 30 min. “Stop solution″ (50 μL) was added to each well and the absorbance was recorded at 490 nm with a Dynatech MR5000 plate reader and the cell death was calculated.

DG-75 cell line = assay: Lactate dehydrogenase (LDH) release cytotoxicity assay in DG-75 cells; format: cell-based; settings: percentage of total LDH release
Protocol: as §2

Row | SMILES | viability at 1 µM (DG-75 cells) | IC50 [1] | viability at 1 µM [1] | viability at 10 µM [1] | apoptosis in MUTU-I at 0.2 µM ([2]; 0.2 µM) | MUTU-1 Cell Viability % 1 μM [3] | DG-75 Cell Viability % 1 μM [4] | viability at 24 h, 0.5 µM [5] | viability at 24 h, 1 µM [5] | viability at 1 µM [6] | viability at 10 µM [6] | IC50 [6] | apoptosis in DG-75 at 10 µM ([7]; 10 µM) | apoptosis in MUTU-I at all concentrations ([2]; all concentrations (0.2–10 µM)) | LDH release (cytotoxicity) in MUTU-I at 1 µM (MUTU-I cell line; 1 µM) | LDH release (cytotoxicity) in MUTU-I at 10 µM (MUTU-I cell line; 10 µM) | apoptosis in DG-75 at 1 µM [7] | LDH release (cytotoxicity) in DG-75 at 10 µM (DG-75 cell line) | apoptosis in MUTU-I at 0.5 µM ([2]; 0.5 µM)
1 | O=C1C2C3c4ccccc4C(/C=C/[N+](=O)[O-])(c4ccccc43)C2C(=O)N1CCCCCCN1C(=O)C2C3c4ccccc4C(/C=C/[N+](=O)[O-])(c4ccccc43)C2C1=O (stereo not drawn) [Compound 15, 13,13′-(Hexane-1,6-diyl)bis(9-((E)-2-nitrovinyl)-9,10-dihydro-9,10[3,4]epipyrroloanthracene-12,14-dione)] | 6 to 23% | 90 nM | < 5% | 2.1% | > 90% | 4.5% | 3.8% | ~99% | 72 to 81% | < 5% | 0% | 240 nM | 95% |  |  |  |  |  | 
2 | O=C1C2C3c4ccccc4C(C=C[N+](=O)[O-])(c4ccccc43)C2C(=O)N1c1ccc(Cl)cc1 (stereo not drawn) [Compound 16b, (E)-13-(4-Chlorophenyl)-9-(2-nitrovinyl)-9,10-dihydro-9,10-[3,4]epipyrroloanthracene-12,14-dione] | 6 to 23% | 170 nM | 5% | 0.38% |  |  | 5.5% | ~99% | 72 to 81% | < 6% | 0.52% | 450 nM |  | over 80% | 5% | 2% | 61% |  | 
3 | COc1ccc(N2C(=O)C3C4c5ccccc5C(/C=C/[N+](=O)[O-])(c5ccccc54)C3C2=O)cc1 (stereo not drawn) [Compound 16c, (E)-13-(4-Methoxyphenyl)-9-(2-nitrovinyl)-9,10-dihydro-9,10-[3,4]epipyrroloanthracene-12,14-dione] | 6 to 23% | 200 nM | 0.19% | 1.1% |  |  |  | ~99% | 72 to 81% | 28.4% | 2.1% | 560 nM |  |  |  |  | 29% | 25% | > 90%
